{"source": "ChEMBL document CHEMBL4387741", "about": "“Optimization of novel reversible Bruton's tyrosine kinase inhibitors identified using Tethering-fragment-based screens” (Bioorg Med Chem, 2019)", "key": {"[1]": {"molecular_target": "Mitogen-activated protein kinase kinase kinase 9 (Homo sapiens) (UniProt P80192)", "test": "Inhibition of wild-type human partial length MLK1 (V88 to W426 residues) expressed in bacterial expression system at 1 uM by Kinomescan method relative to control"}, "[2]": {"molecular_target": "Phosphatidylinositol 4-phosphate 3-kinase C2 domain-containing subunit beta (Homo sapiens) (UniProt O00750)", "test": "Inhibition of wild-type human partial length PIK3C2B (M1 to L1634 residues) expressed in mammalian expression system at 1 uM by Kinomescan method relative to control"}, "[3]": {"molecular_target": "Peripheral plasma membrane protein CASK (Homo sapiens) (UniProt O14936)", "sequence (O14936 whole entry, the tested form may be a part)": "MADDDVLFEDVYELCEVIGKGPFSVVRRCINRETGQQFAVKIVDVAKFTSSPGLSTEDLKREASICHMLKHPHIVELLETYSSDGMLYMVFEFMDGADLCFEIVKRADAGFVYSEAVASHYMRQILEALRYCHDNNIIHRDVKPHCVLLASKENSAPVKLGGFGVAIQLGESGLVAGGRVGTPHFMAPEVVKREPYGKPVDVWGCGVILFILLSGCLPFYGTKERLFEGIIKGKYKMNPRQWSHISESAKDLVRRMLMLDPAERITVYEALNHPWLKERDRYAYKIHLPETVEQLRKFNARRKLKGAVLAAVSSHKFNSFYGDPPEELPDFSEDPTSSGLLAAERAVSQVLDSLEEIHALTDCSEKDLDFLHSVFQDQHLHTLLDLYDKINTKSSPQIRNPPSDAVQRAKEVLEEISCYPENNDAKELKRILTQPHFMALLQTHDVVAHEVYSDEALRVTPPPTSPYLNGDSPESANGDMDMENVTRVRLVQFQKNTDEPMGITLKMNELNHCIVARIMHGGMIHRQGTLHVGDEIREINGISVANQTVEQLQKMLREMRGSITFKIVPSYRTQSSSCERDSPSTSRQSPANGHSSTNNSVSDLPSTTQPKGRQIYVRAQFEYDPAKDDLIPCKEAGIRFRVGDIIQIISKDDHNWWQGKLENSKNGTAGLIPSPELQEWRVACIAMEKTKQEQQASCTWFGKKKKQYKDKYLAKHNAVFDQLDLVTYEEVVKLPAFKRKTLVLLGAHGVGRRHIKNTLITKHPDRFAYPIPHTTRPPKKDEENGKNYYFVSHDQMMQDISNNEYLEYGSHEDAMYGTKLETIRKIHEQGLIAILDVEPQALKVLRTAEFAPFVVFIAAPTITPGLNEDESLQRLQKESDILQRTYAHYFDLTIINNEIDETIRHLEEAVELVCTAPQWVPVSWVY", "test": "Inhibition of wild-type human partial length CASK (M1 to H315 residues) expressed in mammalian expression system at 1 uM by Kinomescan method relative to control"}, "[4]": {"molecular_target": "Ribosomal protein S6 kinase alpha-2 (Homo sapiens) (UniProt Q15349)", "test": "Inhibition of wild-type human partial length C-terminal RSK3 kinase domain 2 (V403 to K700 residues) expressed in bacterial expression system at 1 uM by Kinomescan method relative to control"}, "[5]": {"molecular_target": "Tyrosine-protein kinase Fgr (Homo sapiens) (UniProt P09769)", "test": "Inhibition of wild-type human partial length FGR (L233 to T529 residues) expressed in bacterial expression system at 1 uM by Kinomescan method relative to control"}, "[6]": {"molecular_target": "Tyrosine-protein kinase Fes/Fps (Homo sapiens) (UniProt P07332)", "sequence (P07332 whole entry, the tested form may be a part)": "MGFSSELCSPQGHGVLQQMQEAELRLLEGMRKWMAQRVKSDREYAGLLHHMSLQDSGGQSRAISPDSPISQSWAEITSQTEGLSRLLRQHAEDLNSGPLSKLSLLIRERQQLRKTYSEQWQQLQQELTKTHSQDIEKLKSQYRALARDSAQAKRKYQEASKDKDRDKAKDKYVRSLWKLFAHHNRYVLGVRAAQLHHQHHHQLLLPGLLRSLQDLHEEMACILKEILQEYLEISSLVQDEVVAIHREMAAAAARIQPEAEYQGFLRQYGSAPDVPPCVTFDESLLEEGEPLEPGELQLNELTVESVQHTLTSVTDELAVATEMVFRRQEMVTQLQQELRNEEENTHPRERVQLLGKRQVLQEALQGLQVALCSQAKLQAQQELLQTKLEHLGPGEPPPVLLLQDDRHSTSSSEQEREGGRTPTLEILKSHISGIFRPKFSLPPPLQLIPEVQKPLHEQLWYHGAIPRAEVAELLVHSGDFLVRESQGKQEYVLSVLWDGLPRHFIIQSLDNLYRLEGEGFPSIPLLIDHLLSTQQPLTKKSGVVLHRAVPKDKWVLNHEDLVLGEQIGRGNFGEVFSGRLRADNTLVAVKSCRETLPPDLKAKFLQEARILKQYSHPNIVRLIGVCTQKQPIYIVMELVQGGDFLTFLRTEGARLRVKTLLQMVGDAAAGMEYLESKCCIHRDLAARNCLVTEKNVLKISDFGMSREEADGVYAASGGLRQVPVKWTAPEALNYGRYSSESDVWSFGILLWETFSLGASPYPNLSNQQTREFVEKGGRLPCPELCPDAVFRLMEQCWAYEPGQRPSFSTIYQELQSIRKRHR", "test": "Inhibition of wild-type human partial length FES (I527 to R822 residues) expressed in bacterial expression system at 1 uM by Kinomescan method relative to control"}, "[7]": {"molecular_target": "Mitogen-activated protein kinase 13 (Homo sapiens) (UniProt O15264)", "test": "Inhibition of wild-type human full length p38-delta (M1 to L365 residues) expressed in bacterial expression system at 1 uM by Kinomescan method relative to control"}, "[8]": {"molecular_target": "Dual specificity mitogen-activated protein kinase kinase 5 (Homo sapiens) (UniProt Q13163)", "test": "Inhibition of wild-type human partial length MEK5 (L98 to P448 residues) expressed in mammalian expression system at 1 uM by Kinomescan method relative to control"}, "[9]": {"test_system": "Mast/stem cell growth factor receptor Kit (Homo sapiens), P10721 [V559D,T670I]", "test": "Inhibition of human partial length KIT V559D/T670I double mutant (Y545 to D952 residues) expressed in bacterial expression system at 1 uM by Kinomescan method relative to control"}, "[10]": {"molecular_target": "Epithelial discoidin domain-containing receptor 1 (Homo sapiens) (UniProt Q08345)", "test": "Inhibition of wild-type human partial length DDR1 (R565 to V876 residues) expressed in bacterial expression system at 1 uM by Kinomescan method relative to control"}, "[11]": {"test_system": "Epidermal growth factor receptor (Homo sapiens), P00533 [UNDEFINED MUTATION]", "test": "Inhibition of human partial length EGFR L747-T751del/Sins mutant expressed in bacterial expression system at 1 uM by Kinomescan method relative to control"}, "[12]": {"molecular_target": "Serine/threonine-protein kinase TNNI3K (Homo sapiens) (UniProt Q59H18)", "test": "Inhibition of wild-type human full length TNNI3K (M1 to S835 residues) expressed in bacterial expression system at 1 uM by Kinomescan method relative to control"}, "[13]": {"molecular_target": "Ribosomal protein S6 kinase alpha-3 (Homo sapiens) (UniProt P51812)", "sequence (P51812 whole entry, the tested form may be a part)": "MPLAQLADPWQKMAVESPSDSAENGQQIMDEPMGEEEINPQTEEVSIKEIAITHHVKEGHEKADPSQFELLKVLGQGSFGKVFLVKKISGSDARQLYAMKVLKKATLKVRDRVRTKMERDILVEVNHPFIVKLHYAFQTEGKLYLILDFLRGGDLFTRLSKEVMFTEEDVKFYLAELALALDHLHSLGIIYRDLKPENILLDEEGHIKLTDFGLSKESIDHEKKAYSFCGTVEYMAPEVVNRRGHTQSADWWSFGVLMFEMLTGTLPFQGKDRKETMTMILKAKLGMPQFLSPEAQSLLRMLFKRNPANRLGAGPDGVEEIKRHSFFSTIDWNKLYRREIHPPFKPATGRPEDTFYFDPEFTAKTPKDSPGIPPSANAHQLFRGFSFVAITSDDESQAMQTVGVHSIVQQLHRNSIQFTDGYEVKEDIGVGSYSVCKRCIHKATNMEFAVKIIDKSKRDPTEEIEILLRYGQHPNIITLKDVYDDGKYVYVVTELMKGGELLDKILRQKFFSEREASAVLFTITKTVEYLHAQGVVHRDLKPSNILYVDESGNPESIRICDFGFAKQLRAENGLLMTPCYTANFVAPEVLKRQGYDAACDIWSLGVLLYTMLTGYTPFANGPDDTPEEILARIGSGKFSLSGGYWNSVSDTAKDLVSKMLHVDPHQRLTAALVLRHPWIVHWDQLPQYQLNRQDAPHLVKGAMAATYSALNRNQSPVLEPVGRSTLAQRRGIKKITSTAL", "test": "Inhibition of wild-type human partial length C-terminal RSK2 kinase domain 2 (V402 to S715 residues) expressed in mammalian expression system at 10 uM by Kinomescan method relative to control"}, "[14]": {"molecular_target": "Serine/threonine-protein kinase ULK1 (Homo sapiens) (UniProt O75385)", "test": "Inhibition of wild-type human partial length ULK1 (M1 to T309 residues) expressed in mammalian expression system at 10 uM by Kinomescan method relative to control"}, "[15]": {"molecular_target": "Calcium/calmodulin-dependent protein kinase type 1D (Homo sapiens) (UniProt Q8IU85)", "sequence (Q8IU85 whole entry, looked up, the tested form may be a part)": "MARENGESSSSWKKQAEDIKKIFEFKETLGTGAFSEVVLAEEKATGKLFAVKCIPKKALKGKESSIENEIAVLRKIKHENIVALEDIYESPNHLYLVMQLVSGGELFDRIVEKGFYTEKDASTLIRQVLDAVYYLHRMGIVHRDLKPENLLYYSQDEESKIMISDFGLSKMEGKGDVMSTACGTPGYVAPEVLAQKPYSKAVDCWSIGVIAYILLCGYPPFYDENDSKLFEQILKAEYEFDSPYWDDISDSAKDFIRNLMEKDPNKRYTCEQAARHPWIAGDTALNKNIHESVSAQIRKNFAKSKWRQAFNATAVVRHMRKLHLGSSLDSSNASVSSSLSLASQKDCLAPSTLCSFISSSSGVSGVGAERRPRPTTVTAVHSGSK", "test": "Inhibition of wild-type human partial length CAMK1D (M1 to K299 residues) expressed in bacterial expression system at 10 uM by Kinomescan method relative to control"}, "[16]": {"molecular_target": "Serine/threonine-protein kinase WNK2 (Homo sapiens) (UniProt Q9Y3S1)", "test": "Inhibition of wild-type human partial length WNK2 (V47 to D482 residues) expressed in mammalian expression system at 10 uM by Kinomescan method relative to control"}, "[17]": {"test_system": "Mast/stem cell growth factor receptor Kit (Homo sapiens), P10721 [D816H]", "test": "Inhibition of human partial length KIT D816H mutant (I571 to D952 residues) expressed in mammalian expression system at 10 uM by Kinomescan method relative to control"}, "[18]": {"molecular_target": "Cyclin-dependent kinase-like 3 (Homo sapiens) (UniProt Q8IVW4)", "sequence (Q8IVW4 whole entry, looked up, the tested form may be a part)": "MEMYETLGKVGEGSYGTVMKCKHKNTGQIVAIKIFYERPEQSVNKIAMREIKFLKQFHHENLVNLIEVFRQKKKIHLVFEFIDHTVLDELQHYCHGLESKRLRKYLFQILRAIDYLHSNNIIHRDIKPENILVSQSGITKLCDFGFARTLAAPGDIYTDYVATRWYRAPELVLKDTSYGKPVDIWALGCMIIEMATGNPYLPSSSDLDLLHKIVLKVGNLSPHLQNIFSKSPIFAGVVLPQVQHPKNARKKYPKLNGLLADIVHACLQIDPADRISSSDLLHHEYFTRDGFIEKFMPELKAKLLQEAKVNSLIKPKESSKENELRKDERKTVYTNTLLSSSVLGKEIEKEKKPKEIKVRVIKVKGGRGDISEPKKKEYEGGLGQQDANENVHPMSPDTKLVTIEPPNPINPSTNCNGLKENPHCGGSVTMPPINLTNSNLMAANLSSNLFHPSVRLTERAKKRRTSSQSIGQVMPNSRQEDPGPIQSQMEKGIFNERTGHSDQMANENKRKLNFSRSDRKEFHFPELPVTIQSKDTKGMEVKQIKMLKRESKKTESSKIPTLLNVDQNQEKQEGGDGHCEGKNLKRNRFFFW", "test": "Inhibition of wild-type human partial length CDKL3 (M1 to D327 residues) expressed in bacterial expression system at 10 uM by Kinomescan method relative to control"}, "[19]": {"molecular_target": "Transient receptor potential cation channel subfamily M member 6 (Homo sapiens) (UniProt Q9BX84)", "test": "Inhibition of wild-type human partial length TRPM6 (Q1723 to I1998 residues) expressed in mammalian expression system at 10 uM by Kinomescan method relative to control"}, "[20]": {"test_system": "Tyrosine-protein kinase ABL1 (Homo sapiens), P00519 [T315I]", "test": "Inhibition of human non-phosphorylated ABL1 T315I mutant (S229 to K512 residues) expressed in mammalian expression system at 10 uM by Kinomescan method relative to control"}, "[21]": {"molecular_target": "Phosphatidylinositol 4-phosphate 5-kinase type-1 gamma (Homo sapiens) (UniProt O60331)", "test": "Inhibition of wild-type human partial length PIP5K1C (M1 to T668 residues) expressed in mammalian expression system at 10 uM by Kinomescan method relative to control"}, "[22]": {"molecular_target": "Phosphatidylinositol 4-phosphate 5-kinase type-1 alpha (Homo sapiens) (UniProt Q99755)", "test": "Inhibition of wild-type human full length PIP5K1A (M1 to H562 residues) expressed in bacterial expression system at 10 uM by Kinomescan method relative to control"}, "[23]": {"molecular_target": "Tyrosine-protein kinase ABL1 (Homo sapiens) (UniProt P00519)", "test": "Inhibition of wild-type human phosphorylated ABL1 (S229 to K512 residues) expressed in mammalian expression system at 10 uM by Kinomescan method relative to control"}, "[24]": {"molecular_target": "Phosphorylase b kinase gamma catalytic chain, liver/testis isoform (Homo sapiens) (UniProt P15735)", "test": "Inhibition of wild-type human partial length PHKG2 (M1 to W300 residues) expressed in bacterial expression system at 10 uM by Kinomescan method relative to control"}, "[25]": {"test_system": "Phosphatidylinositol 4,5-bisphosphate 3-kinase catalytic subunit alpha isoform (Homo sapiens), P42336 [H1047Y]", "sequence (P42336 whole entry H1047Y, the tested form may be a part, canonical isoform)": "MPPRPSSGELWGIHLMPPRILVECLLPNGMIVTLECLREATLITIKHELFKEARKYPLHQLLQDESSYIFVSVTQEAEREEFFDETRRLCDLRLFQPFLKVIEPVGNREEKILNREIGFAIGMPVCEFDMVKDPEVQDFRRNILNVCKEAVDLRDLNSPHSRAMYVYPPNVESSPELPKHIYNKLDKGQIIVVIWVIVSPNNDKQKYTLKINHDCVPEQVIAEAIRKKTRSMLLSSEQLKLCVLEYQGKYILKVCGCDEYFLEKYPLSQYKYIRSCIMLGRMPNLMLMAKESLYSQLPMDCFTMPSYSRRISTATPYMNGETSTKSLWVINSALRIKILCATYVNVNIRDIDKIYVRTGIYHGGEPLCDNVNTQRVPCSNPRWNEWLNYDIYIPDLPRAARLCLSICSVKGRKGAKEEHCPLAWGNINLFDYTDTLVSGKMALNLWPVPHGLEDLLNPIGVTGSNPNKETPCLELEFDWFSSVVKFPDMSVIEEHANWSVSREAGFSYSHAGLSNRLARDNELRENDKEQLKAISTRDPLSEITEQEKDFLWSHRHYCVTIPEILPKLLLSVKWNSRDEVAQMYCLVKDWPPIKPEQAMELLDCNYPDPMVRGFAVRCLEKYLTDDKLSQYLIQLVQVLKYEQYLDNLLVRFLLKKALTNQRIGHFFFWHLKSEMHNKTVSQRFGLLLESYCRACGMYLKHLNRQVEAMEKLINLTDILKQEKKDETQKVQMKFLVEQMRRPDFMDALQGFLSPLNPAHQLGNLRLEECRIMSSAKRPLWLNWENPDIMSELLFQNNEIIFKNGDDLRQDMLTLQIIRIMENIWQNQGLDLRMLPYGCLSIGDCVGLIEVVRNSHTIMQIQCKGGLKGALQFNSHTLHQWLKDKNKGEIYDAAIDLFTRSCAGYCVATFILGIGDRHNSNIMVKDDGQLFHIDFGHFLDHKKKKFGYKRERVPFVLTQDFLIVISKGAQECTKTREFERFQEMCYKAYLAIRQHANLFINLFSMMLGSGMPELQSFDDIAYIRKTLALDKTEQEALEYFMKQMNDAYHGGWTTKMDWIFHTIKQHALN", "test": "Inhibition of human partial length PIK3CA H1047Y mutant (R108 to N1068 residues) expressed in mammalian expression system at 10 uM by Kinomescan method relative to control"}, "[26]": {"molecular_target": "RAC-beta serine/threonine-protein kinase (Homo sapiens) (UniProt P31751)", "sequence (P31751 whole entry)": "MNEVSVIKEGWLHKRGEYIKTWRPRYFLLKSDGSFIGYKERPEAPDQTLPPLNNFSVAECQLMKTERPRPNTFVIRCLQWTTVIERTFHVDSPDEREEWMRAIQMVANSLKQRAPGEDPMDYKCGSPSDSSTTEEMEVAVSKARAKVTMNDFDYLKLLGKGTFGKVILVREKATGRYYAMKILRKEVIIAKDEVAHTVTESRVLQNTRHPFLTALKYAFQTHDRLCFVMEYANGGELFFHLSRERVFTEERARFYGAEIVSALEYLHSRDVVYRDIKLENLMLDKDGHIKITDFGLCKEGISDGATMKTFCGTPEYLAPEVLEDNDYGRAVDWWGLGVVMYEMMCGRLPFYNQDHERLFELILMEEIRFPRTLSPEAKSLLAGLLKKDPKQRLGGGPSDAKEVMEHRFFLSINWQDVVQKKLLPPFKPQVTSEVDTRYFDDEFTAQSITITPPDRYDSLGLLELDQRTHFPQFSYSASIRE", "test": "Inhibition of wild-type human partial length AKT2 expressed in bacterial expression system at 10 uM by Kinomescan method relative to control"}}, "data": [{"smiles": "O=C(Nc1cccc([C@@H]2CN(c3ncnc4[nH]ccc34)CCN2CCO)c1)Nc1c(F)cccc1N1CCCC1", "values": [{"measurement": "inhibition", "setting": "[1]", "result": 86, "unit": "%"}, {"measurement": "inhibition", "setting": "[2]", "result": 87, "unit": "%"}, {"measurement": "inhibition", "setting": "[3]", "result": 78, "unit": "%"}, {"measurement": "inhibition", "setting": "[4]", "result": 97, "unit": "%"}, {"measurement": "inhibition", "setting": "[5]", "result": 77, "unit": "%"}, {"measurement": "inhibition", "setting": "[6]", "result": 100, "unit": "%"}, {"measurement": "inhibition", "setting": "[7]", "result": 100, "unit": "%"}, {"measurement": "inhibition", "setting": "[8]", "result": 67, "unit": "%"}, {"measurement": "inhibition", "setting": "[9]", "result": 64, "unit": "%"}, {"measurement": "inhibition", "setting": "[10]", "result": 82, "unit": "%"}, {"measurement": "inhibition", "setting": "[11]", "result": 76, "unit": "%"}, {"measurement": "inhibition", "setting": "[12]", "result": 100, "unit": "%"}]}, {"smiles": "O=C(Nc1cccc([C@H]2CCCN(c3ncnc4[nH]ccc34)C2)c1)Nc1ccccc1N1CCCC1", "values": [{"measurement": "inhibition", "setting": "[13]", "result": 100, "unit": "%"}, {"measurement": "inhibition", "setting": "[14]", "result": 37, "unit": "%"}, {"measurement": "inhibition", "setting": "[15]", "result": 54, "unit": "%"}, {"measurement": "inhibition", "setting": "[16]", "result": 100, "unit": "%"}, {"measurement": "inhibition", "setting": "[17]", "result": 4.2, "unit": "%"}, {"measurement": "inhibition", "setting": "[18]", "result": 97, "unit": "%"}, {"measurement": "inhibition", "setting": "[19]", "result": 69, "unit": "%"}, {"measurement": "inhibition", "setting": "[20]", "result": 65, "unit": "%"}, {"measurement": "inhibition", "setting": "[21]", "result": 59, "unit": "%"}, {"measurement": "inhibition", "setting": "[22]", "result": 5.1, "unit": "%"}, {"measurement": "inhibition", "setting": "[23]", "result": 43, "unit": "%"}, {"measurement": "inhibition", "setting": "[24]", "result": 83, "unit": "%"}, {"measurement": "inhibition", "setting": "[25]", "result": 61, "unit": "%"}, {"measurement": "inhibition", "setting": "[26]", "result": 100, "unit": "%"}]}]}
